Test results: US20260060982A1, “USE OF BTK INHIBITOR AND SINGLE-DOSE DRUG” (HUBEI BIO-PHARMACEUTICAL INDUSTRIAL TECHNOLOGICAL INSTITUTE …, priority 2023, published 2026)

Test: Phase I single-dose clinical trial, safety and tolerability
Type: in vivo, human
Conditions: compound (I) group, all doses (n = 80)
Text: In this example, 96 healthy Chinese aged 18 to 45 were recruited as subjects. The trial included 8 dose groups, each with 12 subjects, who were randomly divided into groups, 10 of whom received compound (I) capsules (i.e., the trial group) and 2 received placebo capsules (containing no compound (I), i.e., the control group or placebo group). […] The dosages involved in this example were all the amount of compound (I). Based on safety and exploration factors, the human MRSD (maximum recommended starting dose) of compound (I) capsule used in the example was set at 10 mg, and the human maximum recommended dose was set at 800 mg. A total of 8 dose groups were set up between the initial dose and the maximum dose (see Table 2 for the dose escalation scheme of the clinical trial): 10 mg, 25 mg, 50 mg, 100 mg, 200 mg, 400 mg, 600 mg, and 800 mg, and single administration safety and tolerability trials were conducted group by group.
The subjects fasted for 10 h before administration and took a single oral administration of compound (I) capsule or placebo capsule at the prescribed dose on the morning of the trial day. Water was prohibited within 2 h after the administration and food was prohibited within 4 h after the administration. Blood sample collection: 3.0 ml of venous blood was collected before administration (within 45 min) and at 10 min, 20 min, 0.5 h, 1 h, 1.5 h, 1.75 h, 2 h, 2.5 h, 3 h, 3.5 h, 4 h, 6 h, 8 h, 12 h, 16 h, 24 h, 36 h, 48 h, and 72 h after administration. Urine sample collection: Urine samples were collected before administration (within 2 h) and at 0-2 h, 2-4 h, 4-8 h, 8-12 h, 12-16 h, 16-24 h, 24-48 h, and 48-72 h after administration. Feces collection: Feces were collected before administration (within 3 days) and at 0-24 h, 24-48 h, and 48-72 h after administration.
Safety data set: including all subjects who received at least one administration and had post-administration safety data. […]

Question: With `C=CC(=O)N1CCC[C@@H](n2nc(-c3ccc(Oc4ccccn4)cc3)c3c(N)n[nH]c(=O)c32)C1` [compound (I), (R)-1-(1-acryloylpiperidin-3-yl)-4-amino-3-(4-(pyridin-2-yloxy)phenyl)-1H-pyrazolo[3,4-d]pyridazin-7(6H)-one] as the compound, how does the “subjects with TEAEs” value read?
Answer: 25

Question: And the “subjects with TEAEs, share” value?
Answer: 31.3%

Question: What about the “treatment-emergent adverse events (TEAE), number of events” value of the same compound?
Answer: 35
